≈ marks a conversion by molar mass, not a printed value.
Assays:
Assay type in all cases: cell-based
[1] = tested on: P-388 (suspension culture of a lymphoid neoplasm from DBA/2 mouse); assay: Cytotoxic activity screening, P-388 cells; details: three days of incubation, approximate IC50 vs control growth; for IC50: Mus musculus, P388, 72 h
Description: (§1) Cell Cultures. Cells were maintained in logarithmic phase of growth in Eagle's Minimum Essential Medium, with Earle's Balanced Salts, with 2.0 mM L-glutamine, with non-essential amino acids, without sodium bicarbonate (EMEM/neaa); supplemented with 10% Fetal Calf Serum (FCS), 10^−2 M sodium bicarbonate and 0.1 g/l penicillin-G+streptomycin sulfate.
(§2) A simple screening procedure has been carried out to determine and compare the antitumour activity of these compounds, using an adapted form of the method described by Bergeron et al (1984). The tumour cell line employed have been P-388 (suspension culture of a lymphoid neoplasm from DBA/2 mouse), A-549 (monolayer culture of a human lung carcinoma), HT-29 (monolayer culture of a human colon carcinoma) and MEL-28 (monolayer culture of a human melanoma).
P-388 cell were seeded into 16 mm wells at 1×10^4 cells per well in 1 ml aliquots of MEM 5FCS containing the indicated concentration of drug. A separate set of cultures without drug was seeded as control growth to ensure that cells remained in exponential phase of growth. All determinations were carried out in duplicate.

[2] = tested on: A-549 (monolayer culture of a human lung carcinoma); assay: Cytotoxic activity screening, A-549 cells; details: three days of incubation, Crystal Violet, approximate IC50; for IC50: Homo sapiens, A549, 72 h
Description: as §1
(§3) A separate set of cultures without drug was seeded as control growth to ensure that cells remained in exponential phase of growth. All determinations were carried out in duplicate. After three days of incubation at 37° C., 10% CO2 in a 98% humid atmosphere, the wells were stained with 0.1% Crystal Violet. An approximately IC50 was determined by comparing the growth in wells with drug to the growth in wells control.

[3] = tested on: HT-29 (monolayer culture of a human colon carcinoma); assay: Cytotoxic activity screening, HT-29 cells; details: three days of incubation, Crystal Violet, approximate IC50; for IC50: Homo sapiens, HT-29, 72 h
Description: as §1, §3

[4] = tested on: MEL-28 (monolayer culture of a human melanoma); assay: Cytotoxic activity screening, MEL-28 cells; details: three days of incubation, Crystal Violet, approximate IC50; for IC50: Homo sapiens, SK-MEL-28, 72 h
Description: as §1, §2
as §3, with “A-549, HT-29 and MEL-28 were seeded into 16 mm wells at 2×10^4 cells per well in 1 ml aliquots of MEM 10FCS containing the indicated concentration of drug. A separate” for “A separate”

DU-145 = assay: Cytotoxic activity screening, DU-145 cells; details: for IC50: Homo sapiens, DU-145, DU-145 cells
Description: [The source words this procedure for another cell line and reports this cell line under the same test.] as §1, §2
Examples of biological activities of the compounds described in the present application are in Table IV (IC50 (ng/mL)) on the following pages.

Structure (SMILES)	IC50 [1]	IC50 [2]	IC50 [3]	IC50 [4]	IC50 (DU-145)	IC50 P-388 [1]	IC50 A-549 [2]	IC50 HT-29 [3]	IC50 MEL-28 [4]	IC50 DU-145 (DU-145; DU-145 cells)
COc1c(C)cc2c(c1O)[C@@H]1C3[C@@H]4SC[C@H](NC(=O)C(C)NC(C)=O)C(=O)OC[C@@H](c5c6c(c(C)c(OC(C)=O)c54)OCO6)N3[C@@H](C#N)[C@H](C2)N1C (some centres unmarked) [Compound 3w]	1 ng/mL (≈ 1.36 nM)	1 ng/mL (≈ 1.36 nM)	1 ng/mL (≈ 1.36 nM)	1 ng/mL (≈ 1.36 nM)	1 ng/mL (≈ 1.36 nM)	–	–	–	–	–
CCCCCCCC(=O)N[C@H]1CS[C@@H]2c3c(OC(C)=O)c(C)c4c(c3[C@H](COC1=O)N1C2[C@H]2c3c(cc(C)c(OC)c3O)C[C@@H]([C@@H]1O)N2C)OCO4 (some centres unmarked) [Compound 4e]	1 ng/mL (≈ 1.35 nM)	1 ng/mL (≈ 1.35 nM)	1 ng/mL (≈ 1.35 nM)	1 ng/mL (≈ 1.35 nM)	1 ng/mL (≈ 1.35 nM)	–	–	–	–	–
COc1c(C)cc2c(c1O)[C@@H]1C3[C@@H]4SC[C@H](N5C(=O)c6ccccc6C5=O)C(=O)OC[C@@H](c5c6c(c(C)c(OC(C)=O)c54)OCO6)N3[C@@H](C#N)[C@H](C2)N1C (some centres unmarked) [Compound 3j]	5 ng/mL (≈ 6.64 nM)	5 ng/mL (≈ 6.64 nM)	5 ng/mL (≈ 6.64 nM)	5 ng/mL (≈ 6.64 nM)	5 ng/mL (≈ 6.64 nM)	–	–	–	–	–
COc1c(C)cc2c(c1O)[C@@H]1C3[C@@H]4SC[C@H](NC(=O)CCCCC5SCC6NC(=O)NC65)C(=O)OC[C@@H](c5c6c(c(C)c(OC(C)=O)c54)OCO6)N3[C@@H](C#N)[C@H](C2)N1C (some centres unmarked) [Compound 3k]	10 ng/mL (≈ 11.8 nM)	10 ng/mL (≈ 11.8 nM)	5 ng/mL (≈ 5.89 nM)	5 ng/mL (≈ 5.89 nM)	5 ng/mL (≈ 5.89 nM)	–	–	–	–	–
COc1c(C)cc2c(c1O)[C@@H]1C3[C@@H]4SC[C@H](NC(=O)C(N)C(C)C)C(=O)OC[C@@H](c5c6c(c(C)c(OC(C)=O)c54)OCO6)N3[C@@H](C#N)[C@H](C2)N1C (some centres unmarked) [Compound 3p]	1 ng/mL (≈ 1.39 nM)	1 ng/mL (≈ 1.39 nM)	1 ng/mL (≈ 1.39 nM)	1 ng/mL (≈ 1.39 nM)	1 ng/mL (≈ 1.39 nM)	–	–	–	–	–
CCCCCCCC(=O)O[C@H]1CS[C@@H]2c3c(OC(C)=O)c(C)c4c(c3[C@H](COC1=O)N1C2[C@H]2c3c(cc(C)c(OC)c3O)C[C@@H]([C@@H]1O)N2C)OCO4 (some centres unmarked) [Compound 21e]	1 ng/mL (≈ 1.35 nM)	1 ng/mL (≈ 1.35 nM)	1 ng/mL (≈ 1.35 nM)	1 ng/mL (≈ 1.35 nM)	1 ng/mL (≈ 1.35 nM)	–	–	–	–	–
COc1c(C)cc2c(c1O)[C@@H]1C3[C@@H]4SC[C@H](NC(=O)CCC(=O)O)C(=O)OC[C@@H](c5c6c(c(C)c(OC(C)=O)c54)OCO6)N3[C@@H](O)[C@H](C2)N1C (some centres unmarked) [Compound 4l]	100 ng/mL (≈ 140 nM)	100 ng/mL (≈ 140 nM)	100 ng/mL (≈ 140 nM)	100 ng/mL (≈ 140 nM)	100 ng/mL (≈ 140 nM)	–	–	–	–	–
COc1c(C)cc2c(c1O)[C@@H]1C3[C@@H]4SC[C@@H](NC(C)=O)C(=O)OC[C@@H](c5c6c(c(C)c(OC(C)=O)c54)OCO6)N3[C@@H](C#N)[C@H](C2)N1C (some centres unmarked) [Compound 3a]	0.5 ng/mL (≈ 0.752 nM)	0.5 ng/mL (≈ 0.752 nM)	0.5 ng/mL (≈ 0.752 nM)	0.5 ng/mL (≈ 0.752 nM)	0.5 ng/mL (≈ 0.752 nM)	–	–	–	–	–
COc1c(C)cc2c(c1O)[C@@H]1C3[C@@H]4SC[C@H](NC(=O)c5ccccc5)C(=O)OC[C@@H](c5c6c(c(C)c(OC(C)=O)c54)OCO6)N3[C@@H](C#N)[C@H](C2)N1C (some centres unmarked) [Compound 3g]	0.1 ng/mL (≈ 0.138 nM)	0.1 ng/mL (≈ 0.138 nM)	0.1 ng/mL (≈ 0.138 nM)	0.1 ng/mL (≈ 0.138 nM)	0.1 ng/mL (≈ 0.138 nM)	–	–	–	–	–
CCCC(=O)O[C@H]1CS[C@@H]2c3c(OC(C)=O)c(C)c4c(c3[C@H](COC1=O)N1C2[C@H]2c3c(cc(C)c(OC)c3O)C[C@@H]([C@@H]1C#N)N2C)OCO4 (some centres unmarked) [Compound 17c]	1 ng/mL (≈ 1.44 nM)	1 ng/mL (≈ 1.44 nM)	1 ng/mL (≈ 1.44 nM)	1 ng/mL (≈ 1.44 nM)	1 ng/mL (≈ 1.44 nM)	–	–	–	–	–
COc1c(C)cc2c(c1O)[C@@H]1C3[C@@H]4SC[C@H](NC(=O)C(F)(F)F)C(=O)OC[C@@H](c5c6c(c(C)c(OC(C)=O)c54)OCO6)N3[C@@H](O)[C@H](C2)N1C (stereo in doubt) [Compound 4b]	0.5 ng/mL (≈ 0.705 nM)	0.5 ng/mL (≈ 0.705 nM)	0.5 ng/mL (≈ 0.705 nM)	0.5 ng/mL (≈ 0.705 nM)	0.5 ng/mL (≈ 0.705 nM)	–	–	–	–	–
COc1c(C)cc2c(c1O)[C@@H]1C3[C@@H]4SCC(NC(=O)C(N)C(C)C)C(=O)OC[C@@H](c5c6c(c(C)c(OC(C)=O)c54)OCO6)N3[C@@H](O)[C@H](C2)N1C (some centres unmarked) [Compound 4p]	0.5 ng/mL (≈ 0.701 nM)	0.5 ng/mL (≈ 0.701 nM)	0.5 ng/mL (≈ 0.701 nM)	0.5 ng/mL (≈ 0.701 nM)	0.5 ng/mL (≈ 0.701 nM)	–	–	–	–	–
COc1c(C)cc2c(c1O)[C@@H]1C3[C@@H]4SC[C@H](NC(=O)/C=C/c5ccc(C(F)(F)F)cc5)C(=O)OC[C@@H](c5c6c(c(C)c(OC(C)=O)c54)OCO6)N3[C@@H](C#N)[C@H](C2)N1C (some centres unmarked) [Compound 3i]	5 ng/mL (≈ 6.09 nM)	5 ng/mL (≈ 6.09 nM)	5 ng/mL (≈ 6.09 nM)	5 ng/mL (≈ 6.09 nM)	5 ng/mL (≈ 6.09 nM)	–	–	–	–	–
CCCCCCCC(=O)O[C@H]1CS[C@@H]2c3c(OC(C)=O)c(C)c4c(c3[C@H](COC1=O)N1C2[C@H]2c3c(cc(C)c(OC)c3O)C[C@@H]([C@@H]1C#N)N2C)OCO4 (some centres unmarked) [Compound 17e]	1 ng/mL (≈ 1.33 nM)	1 ng/mL (≈ 1.33 nM)	1 ng/mL (≈ 1.33 nM)	1 ng/mL (≈ 1.33 nM)	1 ng/mL (≈ 1.33 nM)	–	–	–	–	–
COc1c(C)cc2c(c1O)[C@@H]1C3[C@@H]4SC[C@H](NC(=O)C(C)NC(=O)/C=C/c5ccccc5)C(=O)OC[C@@H](c5c6c(c(C)c(OC(C)=O)c54)OCO6)N3[C@@H](C#N)[C@H](C2)N1C (some centres unmarked) [Compound 3x]	0.1 ng/mL (≈ 0.121 nM)	0.1 ng/mL (≈ 0.121 nM)	0.1 ng/mL (≈ 0.121 nM)	0.1 ng/mL (≈ 0.121 nM)	0.1 ng/mL (≈ 0.121 nM)	–	–	–	–	–
COc1c(C)cc2c(c1O)[C@@H]1C3[C@@H]4SC[C@H](NC(=O)CCCCC5SCC6NC(=O)NC65)C(=O)OC[C@@H](c5c6c(c(C)c(OC(C)=O)c54)OCO6)N3[C@@H](O)[C@H](C2)N1C (some centres unmarked) [Compound 4k]	10 ng/mL (≈ 11.9 nM)	10 ng/mL (≈ 11.9 nM)	10 ng/mL (≈ 11.9 nM)	10 ng/mL (≈ 11.9 nM)	10 ng/mL (≈ 11.9 nM)	–	–	–	–	–
CCCCCCCCCCCCCCCC(=O)N[C@H]1CS[C@@H]2c3c(OC(C)=O)c(C)c4c(c3[C@H](COC1=O)N1C2[C@H]2c3c(cc(C)c(OC)c3O)C[C@@H]([C@@H]1C#N)N2C)OCO4 (some centres unmarked) [Compound 3f]	–	–	–	–	–	>1-10^3 ng/mL	>1-10^3 ng/mL	>1-10^3 ng/mL	>1-10^3 ng/mL	>1-10^3 ng/mL
COc1c(C)cc2c(c1O)[C@@H]1C3[C@@H]4SCC(NCc5ccccc5)C(=O)OC[C@@H](c5c6c(c(C)c(OC(C)=O)c54)OCO6)N3[C@@H](C#N)[C@H](C2)N1C (some centres unmarked) [Compound 3n]	0.5 ng/mL (≈ 0.701 nM)	0.5 ng/mL (≈ 0.701 nM)	0.5 ng/mL (≈ 0.701 nM)	0.5 ng/mL (≈ 0.701 nM)	0.5 ng/mL (≈ 0.701 nM)	–	–	–	–	–
COc1c(C)cc2c(c1O)[C@@H]1C3[C@@H]4SC[C@H](NC(=O)C(NC(C)=O)C(C)C)C(=O)OC[C@@H](c5c6c(c(C)c(OC(C)=O)c54)OCO6)N3[C@@H](O)[C@H](C2)N1C (some centres unmarked) [Compound 4q]	1 ng/mL (≈ 1.32 nM)	1 ng/mL (≈ 1.32 nM)	1 ng/mL (≈ 1.32 nM)	1 ng/mL (≈ 1.32 nM)	1 ng/mL (≈ 1.32 nM)	–	–	–	–	–

From patent US7919493B2, “Anititumoral ecteinascidin derivatives” (Pharma Mar, S.A., priority 2001, dated 2011)
